Assays:
[1] = system: benzodiazepine withdrawal syndrome; conditions: LADER et al. 1987, SCHWEIZER et al. 1998; cited from earlier work
[2] = system: patients treated with benzodiazepines for 3 months or more and requiring benzodiazepine withdrawal; test: randomized double-blind clinical trial: abrupt benzodiazepine withdrawal with cyamemazine substitution versus gradual withdrawal with bromazepam; format: in vivo; conditions: for patients in whom the withdrawal is still a success: after 6 months; for patients in whom the treatment is successful: after 6 weeks of study, benzodiazepine withdrawal, 168 patients
alcohol uptake in rats = conditions: NAASILA et al. 1998; cited from earlier work

SMILES | effect on the withdrawal syndrome [1] | maximum amplitude of the anxiety rebound ([2]; HARS scale (HAMILTON anxiety scale), cyamemazine group versus bromazepam group) | frequency of occurrence of a withdrawal syndrome ([2]; RICKELS withdrawal scale, cyamemazine group versus bromazepam group) | maximum amplitude of the anxiety rebound ([2]; ZUNG anxiety scale, cyamemazine group versus bromazepam group) | patients in whom the withdrawal is still a success [2] [%] | patients in whom the treatment is successful [2] [%] | percentage of patients exhibiting an anxiety rebound ([2]; cyamemazine group versus bromazepam group) | action on alcohol uptake (alcohol uptake in rats)
O=C1CC2(CCCC2)CC(=O)N1CCCCN1CCN(c2ncccn2)CC1 [buspirone] | not shown any significant effect |  |  |  |  |  |  | 
CC(CN(C)C)CN1c2ccccc2Sc2ccc(C#N)cc21 (stereo not shown) [cyamemazine] |  | no significant difference | no significant difference | no significant difference | 90 | 95 | no significant difference | decrease of alcohol uptake
O=C1CN=C(c2ccccn2)c2cc(Br)ccc2N1 [bromazepam] |  |  |  |  | 75 | 85 |  | 
